Holding throughout (format): physicochemical
A short description of data set [1]: Crystal form stability of needle-shaped crystal suspension on storage. As to conditions: 6 months of storage of suspension at 10° C. The source says: As discussed above a sediment of the needle-shaped crystals of the present invention can be easily brought back in the suspended state without exclusive stirring or shaking. Another advantage of the needle-shaped crystals is that this crystal form is stable.

Data set [2] in a line: Stability of recrystallized natamycin dispersion (rest activity by HPLC). As to conditions: for Found natamycin activity (%): dispersion made according to Example 1. The protocol: This example describes the method that was used to analyze the amount of active natamycin in a water-based mixture of several components.
The method used was a HPLC analysis based on the International Dairy Federation (Provisional IDF Standard 140, 1992) with a Lichrosorb RP 8 column.
Detection was at 303 nm UV with a range of 0.1-4 mg/L with an injection volume of 20 μl. Sample preparation was carried out by weighing 2 g of prepared formulation with an accuracy of 1 mg in a measuring flask. 4 ml demineralized water (demiwater) was added and the mixture was stirred for 15 minutes to get a homogeneous suspension.
Subsequently, 80 ml ethanol was added and the mixture was stirred for 10 minutes.
After ultrasonic treatment, the solution was filled up to 100 ml with demiwater and then diluted and/or filtered (0.2 μm) before injecting. The amount of active natamycin was calculated as ppm against a series of standards.
This example describes the stability of recrystallized natamycin, a natamycin dispersion is made according to Example 1 and followed in time on stability.

A short description of data set [3]: Sedimentation (demixing) of natamycin dispersions in tapwater in glass tubes. As to conditions: 1.5 g Delvocid equivalent in 1000 g tapwater, glass tube. The protocol: This example describes the test performed to analyze the sedimentation differences. 1.5 g Delvocid® was added to 998.5 gram tapwater and dispersed well by an electric top stirrer, type RW 20 DZM, from Janke & Kunkel equipped with a rushton stirrer. 1.5 gram of Delvocid® made according to Example 1 was mixed with tapwater to a final weight of 1000 gram by an electric top stirrer, type RW 20 DZM, from Janke & Kunkel equipped with a rushton stirrer. Both homogeneous mixtures were poured in glass tubes and observed in time on demixing.

Data set [4] is described as follows: Resuspendability of settled natamycin in a low viscous dispersion. As to conditions: not touched for 26 days, glass tubes turned around once. The protocol:
This example describes the test that was performed to analyze the resuspendability of settled natamycin in a low viscous dispersion. 1.5 gram Delvocid® was added to 998.5 gram tapwater and dispersed well by an electric top stirrer, type RW 20 DZM, from Janke & Kunkel equipped with a rushton stirrer. An amount equal to 1.5 gram Delvocid® made according to Example 1 was mixed with tapwater to a final weight of 1000 gram by an electric top stirrer, type RW 20 DZM, from Janke & Kunkel equipped with a rushton stirrer. Both homogeneous mixtures were poured in glass tubes and not touched for 26 days.

Data set [5] in a line: Dissolution of natamycin in water as a function of pH. The protocol:
According to another aspect of the present invention, there is provided a process to produce the needle-shaped crystals of the invention. In the first step of this process, natamycin is dissolved in an aqueous solution. The solution comprises at least 80 wt %, preferably at least 90 wt % more preferably at least 95 wt % and still more preferably at least 98 wt % and preferably at least 99 wt % water as solvent. […] Preferably, natamycin is dissolved at a pH ranged between 10 and 14, more preferably at a pH ranged between 11 and 13. In general, natamycin of a purity of more than 90 wt % (including hydrate) preferably of a purity of 95% is used.

Experimental findings from patent publication US9615581B2, “Stable needle-shaped crystals of natamycin” (DSM IP ASSETS B.V., priority 2004, dated 2017) are described below.

As for `C[C@@H]1C/C=C/C=C/C=C/C=C/[C@H](O[C@@H]2O[C@H](C)[C@@H](O)[C@H](N)[C@@H]2O)C[C@@H]2O[C@](O)(C[C@@H](O)C[C@H]3O[C@@H]3/C=C/C(=O)O1)C[C@H](O)[C@H]2C(=O)O` [Recrystallized natamycin, natamycin], in data set [1], the “crystal form and mean length after storage” value was “still contained needle-shaped crystals having the same mean length”. Moreover, in data set [2] (for at least six months), the stability entry was “very high”. Besides, the “Found natamycin activity (%)” value in data set [2] (incubation time 0 months) came out at 100%; in data set [2] (incubation time 1 month), 100%; in data set [2] (incubation time 2 months) it was 99%; in data set [2] (incubation time 4 months), 100%; in data set [2] (incubation time 6 months) it was 98%. Also, the demixing observed entry is given as “Homogeneous” in data set [3] (time 0 minutes); “Homogeneous” in data set [3] (time 40 minutes); “Homogeneous” in data set [3] (time 60 minutes); “Homogeneous” in data set [3] (time 110 minutes); “Homogeneous” in data set [3] (time 180 minutes); “Start demixing observed” in data set [3] (time 4320 minutes). For the same compound, the resuspendability of pellet entry in data set [4] is given as “almost completely resuspended”.
In the case of `C[C@@H]1C/C=C/C=C/C=C/C=C/[C@H](O[C@@H]2O[C@H](C)[C@@H](O)[C@H](N)[C@@H]2O)C[C@@H]2O[C@](O)(C[C@@H](O)C[C@H]3O[C@@H]3/C=C/C(=O)O1)C[C@H](O)[C@H]2C(=O)O` [Standard natamycin, natamycin], the demixing observed result in data set [3] (time 0 minutes) is “Homogeneous”; in data set [3] (time 40 minutes), “Start demixing observed”; in data set [3] (time 60 minutes) it was “Two layers observed”; in data set [3] (time 110 minutes) it was “Pellet formation”; in data set [3] (time 180 minutes), “Pellet formation”; in data set [3] (time 4320 minutes), “Pellet and clear top layer”. Also, the resuspendability of pellet entry in data set [4] was “remained a solid pellet”.
`C[C@@H]1C/C=C/C=C/C=C/C=C/[C@H](O[C@@H]2O[C@H](C)[C@@H](O)[C@H](N)[C@@H]2O)C[C@@H]2O[C@](O)(C[C@@H](O)C[C@H]3O[C@@H]3/C=C/C(=O)O1)C[C@H](O)[C@H]2C(=O)O` [natamycin]: the dissolution in water result in data set [5] (low pH (lower than 4.0) or high pH (above 10.0)) is given as “easily dissolve”; in data set [5] (neutral pH), “hardly dissolve”.
